Results on 14 compounds are retold here after ChEMBL document CHEMBL3616469, “Synthesis, electronic properties, antioxidant and antibacterial activity of some new benzimidazoles” (Bioorg Med Chem, 2015).

Converted amounts (≈) assume the structure as drawn. The source made the active and inactive calls. The rule behind the calls is not given here.

The MIC is the lowest concentration found to suppress growth. The term IC50 denotes the midpoint of a concentration-inhibition curve.

For series [1], the system named is Salmonella enterica subsp. enterica serovar Abony. The series is described as follows: Antibacterial activity against Salmonella abony NCTC 6017 by broth microdilution method. It counts as functional. On the technique in general: Dilution methods test growth across graded concentrations, often in twofold steps.
The test system of another series is Escherichia coli. Description: Antibacterial activity against Escherichia coli ATCC 8739 by broth microdilution method. It counts as functional.
The next series concerns Bacillus spizizenii. Description: Antibacterial activity against Bacillus subtilis ATCC 6633 by broth microdilution method. It counts as functional.
The next series relates to Staphylococcus aureus. The series is described as follows: Antibacterial activity against Staphylococcus aureus ATCC 6538 by broth microdilution method. It counts as functional.
The test system of another series is Pseudomonas aeruginosa. The series is described as follows: Antibacterial activity against Pseudomonas aeruginosa ATCC 9027 by broth microdilution method. It counts as functional.
A short description of series [2]: Antioxidant activity assessed as inhibition of AAPH-induced lipid peroxidation after 3 hrs by TBA-MDA test. It counts as physicochemical.
A short description of series [3]: Antioxidant activity assessed as inhibition of AAPH-induced lipid peroxidation at 200 ug/ml after 3 hrs by TBA-MDA test. It counts as physicochemical.

Consider `C[C@H]1c2cccc(O)c2C(=O)C2=C(O)[C@]3(O)C(=O)C(C(N)=O)=C(O)[C@@H](N(C)C)[C@@H]3[C@@H](O)[C@@H]21.O` [DOXYCYCLINE], for which the MIC came to 6.25 µg/mL in series [1]; 0.78 µg/mL with Escherichia coli; 1.56 µg/mL against Bacillus spizizenii; 0.78 µg/mL in the series with Staphylococcus aureus; 12.5 µg/mL in the series on Pseudomonas aeruginosa.

On to `CCOC(=O)Cn1c(=N)n(CC(=O)OCC)c2cc(C)ccc21`, for which the MIC result (in series [1]; with Escherichia coli; with Bacillus spizizenii; in the series on Staphylococcus aureus; in the series on Pseudomonas aeruginosa) was “inactive” throughout. Also, the IC50 in series [2] came to 176.58 µg/mL (≈ 553 µM). In series [3], the “inhibition (INH)” value came out at 55.87%.

Consider `Cc1ccc2c(c1)n(CC(=O)c1ccccc1)c(=N)n2CC(=O)c1ccccc1`, for which the MIC result (in series [1]; in the series with Escherichia coli; in the series on Pseudomonas aeruginosa) was “inactive” throughout. The IC50 in series [2] was > 200 µg/mL. Besides, the MIC in the series with Bacillus spizizenii and in the series on Staphylococcus aureus was 500 µg/mL (≈ 1300 µM) throughout. In addition, the “inhibition (INH)” value in series [3] is given as 39.26%.

`O=C1O[C@H]([C@@H](O)CO)C(O)=C1O` [ASCORBIC ACID]: the IC50 in series [2] was found to be 9.12 µg/mL (≈ 51.8 µM). Besides, the “inhibition (INH)” value in series [3] came to 99.9%.

For `Cc1ccc2c(c1)n(CCCc1ccccc1)c(=N)n2CCCc1ccccc1`, the minimal inhibitory concentration (MIC) was 500 µg/mL (≈ 1300 µM) in series [1], 500 µg/mL (≈ 1300 µM) with Escherichia coli, 125 µg/mL (≈ 326 µM) with Bacillus spizizenii and 16 µg/mL (≈ 41.7 µM) with Staphylococcus aureus. Further, in series [2], the IC50 stood at 144.88 µg/mL (≈ 378 µM). Further, the “inhibition (INH)” value in series [3] turned out to be 62.15%. Further, the MIC entry in the series on Pseudomonas aeruginosa is “inactive”.

On to `CCOC(=O)Cn1c(=N)n(CC(=O)OCC)c2cc(C(=O)c3ccccc3)ccc21`, for which the MIC result (in series [1]; in the series on Escherichia coli; in the series with Bacillus spizizenii; in the series with Staphylococcus aureus; with Pseudomonas aeruginosa) was “inactive” in each case. Further, the half-inhibitory concentration (IC50) in series [2] was 141.89 µg/mL (≈ 347 µM). In series [3], the “inhibition (INH)” value was 74.04%.

For `O=C(O)/C=C/c1ccc(O)c(O)c1` [CAFFEIC ACID], in series [2], the IC50 came out at 3.79 µg/mL (≈ 21 µM). The “inhibition (INH)” value in series [3] is recorded as 99.98%.

Consider `O=C(c1ccccc1)c1ccc2c(c1)nc1s/c(=C\c3ccc4c(c3)OCO4)c(=O)n12`, for which the IC50 in series [2] worked out at 85.51 µg/mL (≈ 201 µM). Also, in series [3], the “inhibition (INH)” value is reported as 60.8%.

Turning to `N=c1n(CC(=O)c2ccccc2)c2ccc([N+](=O)[O-])cc2n1CC(=O)c1ccccc1`, the MIC result (in series [1]; in the series on Escherichia coli; in the series on Staphylococcus aureus; with Pseudomonas aeruginosa) was “inactive” each time. Besides, the IC50 in series [2] is > 200 µg/mL. Further, the MIC against Bacillus spizizenii came to 1000 µg/mL (≈ 2410 µM). In addition, the “inhibition (INH)” value in series [3] is reported as 23.43%.

With `O=c1c(O)c(-c2ccc(O)c(O)c2)oc2cc(O)cc(O)c12` [QUERCETIN], the IC50 in series [2] worked out at 10.47 µg/mL (≈ 34.6 µM). Also, the “inhibition (INH)” value in series [3] stood at 91.12%.

For `Cc1c(C)c2c(c(C)c1O)CCC(C)(C(=O)O)O2` (stereo unspecified) [TROLOX], in series [2], the IC50 was determined as 7.74 µg/mL (≈ 30.9 µM). Besides, the “inhibition (INH)” value in series [3] is reported as 85.61%.

Regarding `O=C(c1ccccc1)c1ccc2c(c1)nc1s/c(=C\c3ccc(F)cc3)c(=O)n12`, in series [2], the IC50 turned out to be 53.7 µg/mL (≈ 134 µM). The “inhibition (INH)” value in series [3] amounted to 90.76%.

In the case of `COc1ccccc1/C=c1\sc2nc3cc(C(=O)c4ccccc4)ccc3n2c1=O`, in series [2], the half-maximal inhibitory concentration (IC50) amounted to 74.11 µg/mL (≈ 180 µM). The “inhibition (INH)” value in series [3] is recorded as 80.35%.

Regarding `O=C(c1ccccc1)c1ccc2c(c1)nc1s/c(=C\c3ccccc3F)c(=O)n12`, the IC50 in series [2] worked out at 86.97 µg/mL (≈ 217 µM). Moreover, in series [3], the “inhibition (INH)” value is 75.76%.
